According to paper PMC7300657 (EMBO Molecular Medicine, 2020):
Like-named read-outs stand apart in the source and are kept apart here.

What was measured:
[1] = biological target: STK16 (Homo sapiens, UniProt O75716); test: biochemical; assay type: binding
[2] = biological target: BIKE (Homo sapiens, UniProt Q9NSY1); test: biochemical; assay type: binding
[3] = biological target: T1, GAK (Homo sapiens, UniProt O14976); test: biochemical; assay type: binding
T1 sequence (O14976 1-1311): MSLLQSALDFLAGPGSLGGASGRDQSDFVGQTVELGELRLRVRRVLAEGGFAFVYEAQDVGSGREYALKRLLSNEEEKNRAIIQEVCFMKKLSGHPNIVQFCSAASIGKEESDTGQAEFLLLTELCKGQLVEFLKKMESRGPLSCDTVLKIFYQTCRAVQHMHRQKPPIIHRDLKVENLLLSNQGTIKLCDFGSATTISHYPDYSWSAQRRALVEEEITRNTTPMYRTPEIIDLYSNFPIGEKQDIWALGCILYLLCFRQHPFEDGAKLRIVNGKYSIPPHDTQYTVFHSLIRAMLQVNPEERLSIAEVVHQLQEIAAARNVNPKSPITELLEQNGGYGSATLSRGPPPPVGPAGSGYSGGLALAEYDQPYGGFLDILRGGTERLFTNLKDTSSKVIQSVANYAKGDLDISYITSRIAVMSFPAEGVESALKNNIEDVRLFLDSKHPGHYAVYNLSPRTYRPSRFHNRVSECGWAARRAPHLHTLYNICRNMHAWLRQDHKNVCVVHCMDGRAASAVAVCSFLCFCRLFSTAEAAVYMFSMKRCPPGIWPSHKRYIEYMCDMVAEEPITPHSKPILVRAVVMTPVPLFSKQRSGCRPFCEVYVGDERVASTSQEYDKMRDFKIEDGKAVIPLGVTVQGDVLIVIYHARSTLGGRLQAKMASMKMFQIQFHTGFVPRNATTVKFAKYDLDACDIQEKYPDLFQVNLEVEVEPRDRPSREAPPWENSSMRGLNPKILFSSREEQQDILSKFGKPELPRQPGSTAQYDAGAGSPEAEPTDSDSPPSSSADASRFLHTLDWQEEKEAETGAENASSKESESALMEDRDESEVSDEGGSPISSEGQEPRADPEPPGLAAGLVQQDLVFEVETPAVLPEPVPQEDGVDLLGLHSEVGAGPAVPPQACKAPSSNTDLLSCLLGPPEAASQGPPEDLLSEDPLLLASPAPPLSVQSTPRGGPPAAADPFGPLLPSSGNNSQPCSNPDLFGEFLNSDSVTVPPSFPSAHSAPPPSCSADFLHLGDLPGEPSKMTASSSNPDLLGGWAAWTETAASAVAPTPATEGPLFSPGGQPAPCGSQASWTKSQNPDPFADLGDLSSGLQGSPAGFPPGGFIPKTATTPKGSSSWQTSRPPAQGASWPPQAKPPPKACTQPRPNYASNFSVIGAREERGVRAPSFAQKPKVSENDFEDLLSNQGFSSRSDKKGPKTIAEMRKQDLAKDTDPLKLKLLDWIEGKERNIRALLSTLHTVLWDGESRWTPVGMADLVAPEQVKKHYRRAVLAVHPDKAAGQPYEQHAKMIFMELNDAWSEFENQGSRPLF

[4] = biological target: AAK1 (Homo sapiens, UniProt Q2M2I8); test: biochemical
Chain of AAK1 (Q2M2I8 whole entry): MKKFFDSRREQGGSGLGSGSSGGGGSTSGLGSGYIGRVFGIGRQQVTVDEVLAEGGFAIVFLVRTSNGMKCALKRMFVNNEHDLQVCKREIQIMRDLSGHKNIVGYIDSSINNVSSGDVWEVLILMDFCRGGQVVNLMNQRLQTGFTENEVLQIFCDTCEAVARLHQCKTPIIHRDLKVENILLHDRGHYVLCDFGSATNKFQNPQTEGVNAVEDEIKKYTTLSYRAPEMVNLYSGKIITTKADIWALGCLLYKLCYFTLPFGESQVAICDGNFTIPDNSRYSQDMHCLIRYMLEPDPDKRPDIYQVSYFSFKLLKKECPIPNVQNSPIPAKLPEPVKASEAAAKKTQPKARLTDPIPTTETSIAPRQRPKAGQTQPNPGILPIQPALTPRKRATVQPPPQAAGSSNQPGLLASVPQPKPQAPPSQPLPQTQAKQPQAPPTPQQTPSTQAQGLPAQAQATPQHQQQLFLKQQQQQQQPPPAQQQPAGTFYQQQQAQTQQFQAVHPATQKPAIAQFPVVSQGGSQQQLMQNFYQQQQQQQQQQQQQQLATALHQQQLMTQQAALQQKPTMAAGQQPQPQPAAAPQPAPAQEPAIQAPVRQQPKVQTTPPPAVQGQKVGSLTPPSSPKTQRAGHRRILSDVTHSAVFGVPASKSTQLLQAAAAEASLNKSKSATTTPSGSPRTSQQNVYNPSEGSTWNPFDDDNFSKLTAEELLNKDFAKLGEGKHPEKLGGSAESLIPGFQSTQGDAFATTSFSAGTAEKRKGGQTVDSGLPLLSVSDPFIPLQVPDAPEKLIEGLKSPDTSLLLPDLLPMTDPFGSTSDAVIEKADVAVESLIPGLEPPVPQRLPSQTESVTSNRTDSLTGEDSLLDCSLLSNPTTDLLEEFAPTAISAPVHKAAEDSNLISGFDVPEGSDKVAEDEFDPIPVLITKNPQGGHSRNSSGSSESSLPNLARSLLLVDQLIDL

[5] = set-up: method as in Genovese et al, 2019; settings: RA patients, 10,127 patients-year of exposure, up to 6.9 years; ref Genovese et al, 2019; cited from earlier work
[6] = tested on: SARS‐CoV‐2
[7] = tested on: SARS‐CoV‐2; assay type: cell-based; settings: pretreatment 24 h with 400 and 800 nM, MOI 0.1, 48 h after infection, P < 0.05
[8] = tested on: JAK2; settings: ref Fridman et al, 2010; cited from earlier work
[9] = tested on: IL‐6; settings: patients with active RA, inadequate response to methotrexate, P < 0.05
[10] = tested on: cytokine‐induced JAK/STAT signaling; test: Cytokine-stimulated pSTAT inhibition in human leukocyte subpopulations (flow cytometry); assay type: cell-based; settings: human CD4+ T cells, CD8+ T cells, NK cells, monocytes; 1 h preincubation, 15 min cytokine stimulation
Procedure: Leukocyte preparation and experimental design were largely performed as previously described (McInnes et al, 2019). Whole blood samples from healthy donors (N = 6) were apheresed, and leukocyte‐enriched fractions were transferred to the company Primity Bio (Fremont, CA, USA). […] Cytokines were used at the following concentrations: IL‐2 (4 ng/ml), IL‐3 (12 ng/ml), IL‐4 (350 pg/ml), IL‐6 (1.5 ng/ml), IL‐10 (12 ng/ml), IL‐15 (850 pg/ml), IL‐21 (200 pg/ml), IFN‐γ (100 pg/ml), G‐CSF (5 ng/ml), and GM‐CSF (5 pg/ml). The choice of cytokine concentrations and incubation conditions was optimized in order to ensure consistent signaling in alternate cell types and pSTAT readouts. After stimulation, cells were fixed, permeabilized, and fluorescence‐barcoded, and multicolor flow cytometry was performed as previously described to quantify STAT phosphorylation in gated leukocyte subpopulations (McInnes et al, 2019). For a given case (stimulation, cell type, and pSTAT combination), the IC50 was determined if there was a consistent response to the stimulus as described in the statistical analysis section. The primary pSTAT observed for each stimulus is reported. […]
IC50 values were determined by analyzing the mean fluorescence intensity (MFI) of cytokine‐stimulated samples in the presence of the designated concentration of compound. […]

[11] = cited from earlier work
[12] = tested on: primary human liver spheroids; test: Viability of primary human liver spheroids (intracellular ATP); assay type: cell-based; settings: up to concentrations approximately eightfold higher than clinical AUC at 4 mg ([…]), n = 10

Chain of STK16 (O75716 whole entry): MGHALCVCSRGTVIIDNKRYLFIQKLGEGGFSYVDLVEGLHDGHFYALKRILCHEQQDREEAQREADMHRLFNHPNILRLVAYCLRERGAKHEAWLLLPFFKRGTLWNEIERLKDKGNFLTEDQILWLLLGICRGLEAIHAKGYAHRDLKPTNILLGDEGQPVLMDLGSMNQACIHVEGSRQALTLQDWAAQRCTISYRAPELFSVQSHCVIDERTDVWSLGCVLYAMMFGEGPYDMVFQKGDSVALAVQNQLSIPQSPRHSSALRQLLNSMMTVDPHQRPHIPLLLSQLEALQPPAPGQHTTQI
Chain of BIKE (Q9NSY1 whole entry): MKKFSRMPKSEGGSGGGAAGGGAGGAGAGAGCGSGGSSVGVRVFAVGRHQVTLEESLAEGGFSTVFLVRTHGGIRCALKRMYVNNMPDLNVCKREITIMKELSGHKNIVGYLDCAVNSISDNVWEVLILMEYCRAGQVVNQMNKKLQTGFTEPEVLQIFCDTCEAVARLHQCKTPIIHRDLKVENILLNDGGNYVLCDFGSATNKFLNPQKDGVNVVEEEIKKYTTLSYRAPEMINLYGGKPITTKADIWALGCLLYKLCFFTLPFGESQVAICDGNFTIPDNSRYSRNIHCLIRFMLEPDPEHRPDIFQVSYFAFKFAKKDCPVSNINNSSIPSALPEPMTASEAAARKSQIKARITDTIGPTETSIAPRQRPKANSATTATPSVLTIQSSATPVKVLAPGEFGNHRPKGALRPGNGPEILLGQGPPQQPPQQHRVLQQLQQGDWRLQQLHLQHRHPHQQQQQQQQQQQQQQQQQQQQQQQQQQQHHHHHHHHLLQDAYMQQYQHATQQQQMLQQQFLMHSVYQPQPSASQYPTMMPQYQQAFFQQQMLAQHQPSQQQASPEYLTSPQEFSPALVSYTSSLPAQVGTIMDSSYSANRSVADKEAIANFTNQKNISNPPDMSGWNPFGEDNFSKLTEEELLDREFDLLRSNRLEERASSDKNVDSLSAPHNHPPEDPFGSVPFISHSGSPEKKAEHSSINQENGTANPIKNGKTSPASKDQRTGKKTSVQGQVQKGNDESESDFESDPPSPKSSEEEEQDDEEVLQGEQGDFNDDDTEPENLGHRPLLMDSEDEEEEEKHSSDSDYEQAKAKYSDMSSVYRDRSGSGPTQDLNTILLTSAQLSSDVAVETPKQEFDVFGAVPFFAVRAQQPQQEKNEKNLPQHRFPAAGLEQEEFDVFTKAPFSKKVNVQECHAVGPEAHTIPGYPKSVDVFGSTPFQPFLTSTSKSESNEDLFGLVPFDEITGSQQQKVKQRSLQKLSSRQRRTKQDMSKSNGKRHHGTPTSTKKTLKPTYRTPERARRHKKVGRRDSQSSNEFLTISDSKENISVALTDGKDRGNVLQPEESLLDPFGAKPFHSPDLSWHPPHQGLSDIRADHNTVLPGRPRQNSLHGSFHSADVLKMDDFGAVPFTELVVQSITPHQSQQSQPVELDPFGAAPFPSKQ

| Structure (SMILES) | Kd [1] [nM] | Kd [2] [nM] | Kd ([3]; read-out: GAK Kd) [nM] | Kd [4] [nM] | incidence rate of serious infection [5] | clinical outcome of case series ([6]; 4 mg (Patients A, C, D) or 2 mg (Patient B) once daily oral, 10-12 days) | tolerability ([6]; four patients, 2 or 4 mg once daily oral, 10-12 days) | liver aminotransferases ([6]; four patients, during baricitinib treatment) | time to improvement of liver enzyme elevations ([6]; without interrupting baricitinib treatment) [h] | reduction of viral load [7] | binding affinity for JAK2 [8] [nM] | change from baseline in plasma IL-6 at week 12 [9] | signaling of cytokines implicated in COVID-19 infection (IL-2, IL-6, IL-10, IFN-γ, G-CSF), pSTAT inhibition [10] | unbound fraction of free bioavailable drug, AUC ([11]; RA patient sera, baricitinib 2 mg, ref data on file) [nM] | half-life ([11]; RA patients, ref Eli Lilly and Company, 2019) | main clearance mechanism ([11]; ref Eli Lilly and Company, 2019) | liver cell injury / spheroid viability [12] | Kd [3] [nM] |
| --- | --- | --- | --- | --- | --- | --- | --- | --- | --- | --- | --- | --- | --- | --- | --- | --- | --- | --- |
| NC(=O)Nc1cc(-c2cccc(F)c2)sc1C(=O)N[C@H]1CCCNC1 [AZD7762] | 1900 | 13 | 1.4 | 2.9 | – | – | – | – | – | – | – | – | – | – | – | – | – | – |
| CCS(=O)(=O)N1CC(CC#N)(n2cc(-c3ncnc4[nH]ccc34)cn2)C1 [Baricitinib] | – | – | – | – | 2.8 /100 patient‐years | improved lung function, resolution of their illness, and reductions in viral load, plasma IL‐6, ferritin, and CRP levels | well‐tolerated | Transient increases | ≤ 72 | 30–40% | 5.7 | significant reduction | inhibited signaling | 326 | approximately 12 h | renal elimination | did not result in liver cell injury | – |
| CC[C@@H]1CN(C(=O)NCC(F)(F)F)C[C@@H]1c1cnc2cnc3[nH]ccc3n12 [Upadacitinib] | 9300 | 11000 | – | – | – | – | – | – | – | – | – | – | – | – | – | – | – | 2200 |
